For the experiment, the system named is primary DA midbrain neurons. Kind of experiment: Protection of primary DA midbrain neurons against 6-OHDA toxicity (TH-positive neuron count). The class given is cell-based, mice. The settings on record: 1 μM agonist 1 h, 0-50 μM 6-OHDA 24 h. The method, then: Experiments were conducted in accordance with the ethical guidelines of H. Lundbeck A/S and the Danish legislation of animal use for scientific procedures. Cell culture was basically performed as described (Nagel et al., [2008]), with few modifications. […] Plates were stored at 4°C until tyrosine-hydroxylase-positive (TH-positive) neurons were counted using a Thermo Scientific Cellomics® ArrayScan® VTI HCS Reader. […] To ensure that only healthy primary cultures were assessed, we furthermore excluded experiments with total cell counts below Mean minus standard deviation (SD) of the summarized experiments. […]
Neuronal midbrain cultures were pretreated with 1 μM of either one of the agonists compound 1 ( [drawing 9] ), compound 2 ( [drawing 10] ), or compound 3 ( [drawing 11] ), or vehicle ( [drawing 12] ) for 1 h, followed by treatment with the indicated concentrations of 6-hydroxydopamine (6-OHDA) for 24 h. TH-positive neurons were counted and normalized to control numbers.

Turning to `CN(C)C1CCN(C(=O)CNC(=O)Cc2cccc3ccccc23)C1` (stereo not shown) [compound 2, N-[2-(3-Dimethylamino-pyrrolidin-1-yl)-2-oxo-ethyl]-2-Naphthalen-1-yl-acetamide], the “protection against 6-OHDA toxicity” value is “do not protect”.

Values taken from PMC4923153, “Protection of Primary Dopaminergic Midbrain Neurons by GPR139 Agonists Supports Different Mechanisms of MPP^+ and Rotenone Toxicity” (Frontiers in Cellular Neuroscience, 2016).
